Assay results published in patent US9161986B2, “Nanoparticle containing prostaglandin I2 derivative” (LTT BIO-PHARMA CO., LTD., priority 2011, dated 2015).

Key:
[1] = measure of chemical stability; cited from earlier work
[2] = test system: primary pulmonary hypertension; conditions: primary pulmonary hypertension group treated with epoprostenol; previous studies; cited from earlier work
[3] = test system: cAMP; test: Continuous increase of plasma cAMP after intravenous administration (cAMP ELISA); type: in vivo, male Wister rats; conditions: intravenous via tail vein, rats, n=2; FIG. 6
Procedure: Prostacyclin leads to relaxation of vascular smooth muscle and exerts a dilation effect on a pulmonary vessel by activating adenyl cyclase via a prostacyclin receptor on the vascular smooth muscle and increasing the concentration of cAMP. Therefore, the present inventors investigated whether cAMP increased continuously when the beraprost sodium-containing nanoparticle of the present invention was administered. Either beraprost sodium-containing nanoparticles or beraprost sodium (comparative example) was administered to male Wister rats (5 week old, n=2) intravenously via a tail vein. After administration, a tail vein different from the administration site was cut with a scalpel at specified times, and blood samples were collected by using blood collection tubes. […] This blood plasma sample was diluted as appropriate and cAMP contained in the […] was determined by using a cAMP ELISA kit. The method of measurement followed the protocol made by Assay Designs Inc.

[4] = test system: pulmonary vascular resistance; conditions: treatment for three months, clinical trials; cited from earlier work
[5] = Formation of insoluble complex in presence or absence of ferric chloride; type: physicochemical; conditions: various amounts of diethanolamine
Procedure: To confirm this, the pH change of the solution and the percentage of beraprost sodium remaining in its supernatant when various amounts of diethanolamine (DEA) was added to the solution in the presence or absence of ferric chloride were examined.
Specifically, the pH of the solution was adjusted by adding diethanolamine to the aqueous solution of an iron ion of a specific concentration (455 mM) and beraprost sodium (32.5 mM) so that various pHs of the solution were obtained. The solution (suspension) was centrifuged at 16,500 g for 10 minutes, and the amount of beraprost sodium dissolved in the supernatant was determined by HPLC. The pH of the solution was also measured.
On the other hand, the pH of the solution was adjusted by adding diethanolamine to the aqueous solution of beraprost sodium (32.5 mM) in which hydrochloric acid was used instead of an iron ion of a specific concentration so that various pHs of the solution were obtained. The solution (suspension) was centrifuged at 16,500 g for 10 minutes, and the amount of beraprost sodium dissolved in the supernatant was determined by HPLC. The pH of the solution was also measured.

[6] = oral; cited from earlier work
[7] = in vivo; cited from earlier work
[8] = Evaluation of drug retention in blood after intravenous administration; type: in vivo, male Wister rats; conditions: intravenous via tail vein, rats, n=3; FIG. 5
Procedure: Either beraprost sodium nanoparticles or beraprost sodium (comparative example) was administered to male Wister rats (5 week old, n=3) intravenously via a tail vein. After administration, a tail vein different from the administration site was cut with a scalpel at specified times, and blood samples were collected by using blood collection tubes (heparin-treated). A sample solution was prepared by adding 50 μL, of the blood to a microfuge tube containing 1,4-dioxane (150 μL). The sample solution was centrifuged (13,200 rpm, 4° C., and 10 minutes), and then, beraprost sodium contained in the supernatant was determined by HPLC.

SMILES | chemical half-life [1] | three-year survival rate [2] | continuous increase of cAMP in the plasma [3] | pulmonary vascular resistance [4] | formation of insoluble complex ([5]; in the absence of ferric chloride (hydrochloric acid instead), FIG. 3) | formation of insoluble complex ([5]; in the presence of ferric chloride, FIG. 2) | half-life of the blood concentration [6] [h] | biological half-life [7] | drug retention in the blood [8]
CCCCC[C@H](O)/C=C/[C@@H]1[C@H]2C/C(=C/CCCC(=O)O)O[C@H]2C[C@H]1O [epoprostenol] | about 10 minutes | about 70% | – | – | – | – | – | – | –
CC#CCC(C)[C@H](O)/C=C/[C@@H]1[C@H]2c3cccc(CCCC(=O)[O-])c3O[C@H]2C[C@H]1O.[Na+] (stereo partly drawn) [beraprost sodium] | – | – | no continuous increase of cAMP was observed | significantly decreased the pulmonary vascular resistance | no insoluble complex was formed | formation of an insoluble complex | 1.1 | about 1.1 hours | little beraprost sodium existed in the blood as early as 3 hours after its administration
